Test results from patent US10640534B2 (Agios Pharmaceuticals, Inc., priority 2012, dated 2020).

Target: IDH1 R132C (Homo sapiens (Human), UniProt O75874, R132C)
Assay: In vitro NADPH depletion assay for IDH1m R132C inhibitors
Assay type: biochemical
Conditions: enzyme, read-out: IDH R132C IC50
Experimental: A test compound is prepared as 10 mM stock in DMSO and diluted to 50× final concentration in DMSO, for a 50 μl reaction mixture. IDH enzyme activity converting alpha-ketoglutarate to 2-hydroxyglutaric acid is measured using a NADPH depletion assay. In the assay the remaining cofactor is measured at the end of the reaction with the addition of a catalytic excess of diaphorase and resazurin, to generate a fluorescent signal in proportion to the amount of NADPH remaining. […] The reaction is started with the addition of 10 μl of Substrate Mix ([…], 5 mM alpha-ketoglutarate, in Assay Buffer) and the mixture is incubated for 90 minutes at room temperature.
The concentration of NADPH and alpha-ketoglutarate in the Substrate Buffer is 20 μM and 1 mM, respectively.

Sequence of IDH1 R132C (O75874 whole entry R132C): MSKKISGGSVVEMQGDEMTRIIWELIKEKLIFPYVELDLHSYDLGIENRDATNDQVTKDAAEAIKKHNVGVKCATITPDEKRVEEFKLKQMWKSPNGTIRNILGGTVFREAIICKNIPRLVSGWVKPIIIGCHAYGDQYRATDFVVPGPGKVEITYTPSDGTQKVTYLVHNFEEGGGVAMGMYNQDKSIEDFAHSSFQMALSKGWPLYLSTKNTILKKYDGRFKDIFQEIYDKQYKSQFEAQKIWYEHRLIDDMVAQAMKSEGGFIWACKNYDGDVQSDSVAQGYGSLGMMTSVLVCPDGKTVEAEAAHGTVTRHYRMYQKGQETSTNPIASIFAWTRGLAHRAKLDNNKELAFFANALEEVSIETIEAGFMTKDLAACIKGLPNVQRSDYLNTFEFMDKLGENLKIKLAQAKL

IC50: 0.1 to 0.5 µM
Compound: O=C(NC1CC(F)(F)C1)[C@H](c1ccccc1Cl)N(C(=O)[C@@H]1CCC(=O)N1c1ccncn1)c1cccc(F)c1 [Compound 22]
